Assay results as given in ChEMBL document CHEMBL5113372, “Paradigm shift of "classical" HDAC inhibitors to "hybrid" HDAC inhibitors in therapeutic interventions” (Eur J Med Chem, 2021).

Legend:
[1] = system: A549; experiment: Antitumor activity against human A549 cells xenografted in BALB/c mouse assessed as tumor growth inhibition measured every 2 days for 2 to 3 weeks by caliper method relative to control; type: functional; details: time 2 day
[2] = system: A549; experiment: Antiproliferative activity against human A549 cells assessed as inhibition of cell viability treated for 12 to 48 hrs by MTT assay; type: functional, cell-based
[3] = biological target: Androgen receptor (Rattus norvegicus, UniProt P15207); experiment: Displacement of [3H]-mibolerone from rat androgen receptor incubated for 4 hrs by radioligand binding assay
Chain of Androgen receptor (P15207 whole entry S389L): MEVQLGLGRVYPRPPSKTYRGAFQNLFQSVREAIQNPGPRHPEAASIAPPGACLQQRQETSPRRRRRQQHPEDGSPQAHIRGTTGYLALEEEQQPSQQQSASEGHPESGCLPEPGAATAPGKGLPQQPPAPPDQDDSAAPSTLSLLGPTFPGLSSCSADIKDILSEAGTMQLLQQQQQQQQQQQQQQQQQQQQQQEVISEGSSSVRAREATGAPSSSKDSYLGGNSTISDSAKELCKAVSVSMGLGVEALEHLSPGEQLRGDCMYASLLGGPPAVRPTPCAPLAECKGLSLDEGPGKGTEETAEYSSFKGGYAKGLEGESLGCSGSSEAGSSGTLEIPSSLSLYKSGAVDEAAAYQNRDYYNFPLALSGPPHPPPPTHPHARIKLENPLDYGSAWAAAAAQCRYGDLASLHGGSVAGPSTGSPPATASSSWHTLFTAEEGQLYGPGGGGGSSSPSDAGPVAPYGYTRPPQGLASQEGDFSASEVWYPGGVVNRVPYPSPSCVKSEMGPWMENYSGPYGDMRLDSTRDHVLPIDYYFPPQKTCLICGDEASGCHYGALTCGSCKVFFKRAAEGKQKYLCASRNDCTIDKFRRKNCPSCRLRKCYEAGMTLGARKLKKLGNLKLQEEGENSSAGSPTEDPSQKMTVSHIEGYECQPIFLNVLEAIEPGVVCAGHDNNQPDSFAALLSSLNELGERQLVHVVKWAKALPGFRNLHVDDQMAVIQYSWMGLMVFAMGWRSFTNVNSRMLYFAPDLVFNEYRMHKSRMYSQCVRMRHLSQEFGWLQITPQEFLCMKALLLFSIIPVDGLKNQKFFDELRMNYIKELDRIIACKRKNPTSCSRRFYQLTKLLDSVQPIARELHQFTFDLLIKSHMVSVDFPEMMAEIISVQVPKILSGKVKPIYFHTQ

[4] = system: DU-145; experiment: Antiproliferative activity against human DU-145 assessed as inhibition of cell viability incubated for 72 hrs by MTT/MTS assay; type: functional, cell-based; details: DU-145, 72 h
[5] = system: LNCaP; experiment: Antiproliferative activity against human LNCaP cells expressing androgen receptor assessed as inhibition of cell viability; type: functional, cell-based
[6] = Antiproliferative activity against human WM983B cells assessed as cell growth inhibition; type: functional, cell-based
[7] = biological target: T1, Histone deacetylase 1 (Homo sapiens, UniProt Q13547); experiment: Inhibition of HDAC1 (unknown origin) using RHKK(Ac) as substrate incubated for 30 mins by fluorescence based assay
T1 sequence (Q13547 whole entry): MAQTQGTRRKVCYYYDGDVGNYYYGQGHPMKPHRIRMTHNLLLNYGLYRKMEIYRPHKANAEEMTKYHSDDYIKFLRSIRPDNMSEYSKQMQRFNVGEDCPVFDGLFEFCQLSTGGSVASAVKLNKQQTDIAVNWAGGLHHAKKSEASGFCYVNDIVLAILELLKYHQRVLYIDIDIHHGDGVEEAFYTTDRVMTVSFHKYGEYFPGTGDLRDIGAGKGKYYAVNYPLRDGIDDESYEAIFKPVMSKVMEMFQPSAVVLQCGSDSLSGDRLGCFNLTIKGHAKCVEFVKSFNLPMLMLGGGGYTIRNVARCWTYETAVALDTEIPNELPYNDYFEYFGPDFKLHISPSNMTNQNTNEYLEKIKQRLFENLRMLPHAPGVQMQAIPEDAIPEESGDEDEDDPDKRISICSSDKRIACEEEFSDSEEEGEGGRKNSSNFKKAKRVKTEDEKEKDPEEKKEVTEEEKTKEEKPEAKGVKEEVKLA

[8] = biological target: Lysine-specific histone demethylase 1A (Homo sapiens, UniProt O60341); experiment: Inhibition of LSD1 (unknown origin) using diMeK4H31-21 as substrate preincubated for 5 mins followed by substrate addition measured for 5 mins by absorbance based assay
[9] = system: SK-MEL-5; experiment: Antitumor activity against human SK-MEL-5 cells xenografted in BALB/c mouse assessed as reduction in tumor volume at 30 mg/kg, ip qd measured after 4 weeks by caliper method relative to control; type: functional; design: scale not given: the % may be the effect or the level left
[10] = biological target: T2, Protein deacetylase HDAC6 (Homo sapiens, UniProt Q9UBN7); experiment: Inhibition of recombinant human HDAC6 expressed in baculovirus infected Hi-5 insect cells using Boc-Lys (epsilon-acetyl)-AMC as substrate incubated for 3 to 24 hrs by fluorescence based assay
T2 sequence (Q9UBN7 whole entry): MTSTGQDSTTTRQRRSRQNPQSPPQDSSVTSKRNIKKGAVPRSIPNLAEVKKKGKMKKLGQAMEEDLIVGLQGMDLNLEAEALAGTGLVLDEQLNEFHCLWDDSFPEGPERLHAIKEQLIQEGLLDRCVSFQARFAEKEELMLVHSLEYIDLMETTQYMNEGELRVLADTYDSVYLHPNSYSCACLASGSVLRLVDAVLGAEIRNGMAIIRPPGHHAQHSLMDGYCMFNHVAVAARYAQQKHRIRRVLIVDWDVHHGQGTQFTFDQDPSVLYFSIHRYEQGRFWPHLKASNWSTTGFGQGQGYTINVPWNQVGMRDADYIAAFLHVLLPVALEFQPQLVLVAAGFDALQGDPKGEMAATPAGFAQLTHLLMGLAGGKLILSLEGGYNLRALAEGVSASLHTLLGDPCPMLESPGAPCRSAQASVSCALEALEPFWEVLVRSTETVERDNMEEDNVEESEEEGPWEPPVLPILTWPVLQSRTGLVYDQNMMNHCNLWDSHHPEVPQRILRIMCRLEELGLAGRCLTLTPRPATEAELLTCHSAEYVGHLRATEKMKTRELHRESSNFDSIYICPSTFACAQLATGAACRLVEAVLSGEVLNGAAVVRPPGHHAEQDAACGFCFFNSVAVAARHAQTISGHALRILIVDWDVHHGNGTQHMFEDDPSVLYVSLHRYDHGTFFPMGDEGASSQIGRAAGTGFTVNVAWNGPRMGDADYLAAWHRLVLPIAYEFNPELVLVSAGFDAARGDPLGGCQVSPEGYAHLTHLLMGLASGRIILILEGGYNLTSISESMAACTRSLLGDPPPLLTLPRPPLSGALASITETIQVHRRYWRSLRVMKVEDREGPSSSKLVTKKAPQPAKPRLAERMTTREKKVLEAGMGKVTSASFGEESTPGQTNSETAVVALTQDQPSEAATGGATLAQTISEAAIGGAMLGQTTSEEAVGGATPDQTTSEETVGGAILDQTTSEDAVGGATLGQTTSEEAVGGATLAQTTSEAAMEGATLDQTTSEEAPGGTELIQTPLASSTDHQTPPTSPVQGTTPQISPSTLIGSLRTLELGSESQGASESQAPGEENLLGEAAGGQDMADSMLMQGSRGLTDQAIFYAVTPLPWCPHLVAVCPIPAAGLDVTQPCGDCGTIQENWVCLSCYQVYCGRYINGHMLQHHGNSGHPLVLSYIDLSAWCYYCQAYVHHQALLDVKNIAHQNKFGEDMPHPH

[11] = biological target: T1, Histone deacetylase 1; experiment: Inhibition of recombinant human HDAC1 using Boc-Lys (Ac)-AMC as substrate incubated for 60 mins by fluorescence based assay
[12] = system: SMMC-7721; experiment: cells; type: functional, cell-based; details: Homo sapiens, SMMC-7721, 48 h
[13] = biological target: T2, Protein deacetylase HDAC6; experiment: Inhibition of HDAC6 (unknown origin)
[14] = system: A549; experiment: Cytotoxicity against human A549 cells assessed as cell growth inhibition; type: functional, cell-based
[15] = system: SK-BR-3; experiment: Cytotoxicity against human SK-BR-3 cells assessed as cell growth inhibition; type: functional, cell-based
[16] = system: NCI-H1975; experiment: Cytotoxicity against human NCI-H1975 cells assessed as cell growth inhibition; type: functional, cell-based
[17] = system: BT-474; experiment: Cytotoxicity against human BT-474 cells assessed as cell growth inhibition; type: functional, cell-based
[18] = biological target: T1, Histone deacetylase 1; experiment: Inhibition of HDAC1 (unknown origin)
[19] = system: A-431; experiment: Cytotoxicity against human A-431 cells assessed as cell growth inhibition; type: functional, cell-based
[20] = biological target: Epidermal growth factor receptor (Homo sapiens, UniProt P00533); experiment: Inhibition of EGFR (unknown origin)
Chain of Epidermal growth factor receptor (P00533 whole entry): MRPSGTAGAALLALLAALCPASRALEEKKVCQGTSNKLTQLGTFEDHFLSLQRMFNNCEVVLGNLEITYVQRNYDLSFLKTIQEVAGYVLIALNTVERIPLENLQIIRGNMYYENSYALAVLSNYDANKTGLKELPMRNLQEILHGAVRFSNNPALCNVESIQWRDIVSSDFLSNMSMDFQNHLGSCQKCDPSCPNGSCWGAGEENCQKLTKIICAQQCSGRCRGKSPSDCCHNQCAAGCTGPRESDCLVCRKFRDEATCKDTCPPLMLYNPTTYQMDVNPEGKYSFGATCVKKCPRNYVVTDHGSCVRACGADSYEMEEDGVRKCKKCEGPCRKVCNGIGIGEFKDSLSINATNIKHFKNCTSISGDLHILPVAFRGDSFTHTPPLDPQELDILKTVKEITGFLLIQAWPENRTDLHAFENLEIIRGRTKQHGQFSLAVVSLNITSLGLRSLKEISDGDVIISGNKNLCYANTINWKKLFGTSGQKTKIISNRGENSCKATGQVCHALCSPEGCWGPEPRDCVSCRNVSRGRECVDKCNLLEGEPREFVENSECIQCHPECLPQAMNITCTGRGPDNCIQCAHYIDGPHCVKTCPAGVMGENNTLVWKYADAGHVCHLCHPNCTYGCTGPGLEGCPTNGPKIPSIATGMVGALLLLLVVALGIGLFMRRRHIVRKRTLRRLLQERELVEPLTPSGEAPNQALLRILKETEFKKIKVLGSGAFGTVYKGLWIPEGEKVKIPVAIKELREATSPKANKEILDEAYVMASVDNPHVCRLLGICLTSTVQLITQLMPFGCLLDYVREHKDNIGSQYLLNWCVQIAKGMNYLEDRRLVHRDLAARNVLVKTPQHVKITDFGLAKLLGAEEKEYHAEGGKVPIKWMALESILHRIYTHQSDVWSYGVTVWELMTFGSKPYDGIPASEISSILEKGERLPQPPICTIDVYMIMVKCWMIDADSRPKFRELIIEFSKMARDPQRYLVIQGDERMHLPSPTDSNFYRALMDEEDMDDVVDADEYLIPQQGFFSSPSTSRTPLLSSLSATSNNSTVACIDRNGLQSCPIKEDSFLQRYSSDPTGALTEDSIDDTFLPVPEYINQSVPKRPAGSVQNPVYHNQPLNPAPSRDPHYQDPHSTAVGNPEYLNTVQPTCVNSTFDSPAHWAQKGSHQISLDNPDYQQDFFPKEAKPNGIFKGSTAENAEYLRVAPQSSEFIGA

[21] = biological target: Vitamin D3 receptor (Homo sapiens, UniProt P11473); experiment: Displacement of fluorescent tracer from VDR (unknown origin) by fluorescence polarisation competition assay
Chain of Vitamin D3 receptor (P11473 whole entry): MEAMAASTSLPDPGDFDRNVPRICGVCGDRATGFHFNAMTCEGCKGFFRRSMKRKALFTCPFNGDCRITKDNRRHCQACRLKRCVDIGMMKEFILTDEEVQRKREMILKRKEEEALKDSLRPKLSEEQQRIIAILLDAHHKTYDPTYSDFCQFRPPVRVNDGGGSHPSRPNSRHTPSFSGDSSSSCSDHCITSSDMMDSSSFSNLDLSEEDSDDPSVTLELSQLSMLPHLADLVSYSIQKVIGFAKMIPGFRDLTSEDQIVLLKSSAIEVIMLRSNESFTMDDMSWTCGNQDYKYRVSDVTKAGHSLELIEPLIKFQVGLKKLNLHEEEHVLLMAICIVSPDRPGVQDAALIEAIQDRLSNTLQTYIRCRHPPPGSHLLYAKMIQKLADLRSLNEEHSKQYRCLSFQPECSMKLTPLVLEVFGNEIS

[22] = biological target: T1, Histone deacetylase 1; experiment: Inhibition of recombinant human HDAC1 using fluorogenic substrate measured after 60 mins by fluorescence based assay
[23] = system: MCF7; experiment: Cytotoxicity against human MCF7 cells assessed as cell growth inhibition by trypan blue dye based light microscopy; type: functional
[24] = system: Jurkat; experiment: Cytotoxicity against human Jurkat cells assessed as cell growth inhibition by trypan blue dye based light microscopy; type: functional
[25] = biological target: T1, Histone deacetylase 1; experiment: Inhibition of HDAC1 (unknown origin) using Boc-Lys(Ac)-7-amino-4-methylcoumarin (BocLys(Ac)-AMC) as substrate incubated for 30 mins by fluorescence based assay
[26] = biological target: T2, Protein deacetylase HDAC6; experiment: Inhibition of HDAC6 (unknown origin) using Boc-Lys(Ac)-7-amino-4-methylcoumarin (BocLys(Ac)-AMC) as substrate incubated for 30 mins by fluorescence based assay
[27] = system: PC-3; experiment: Antiproliferative activity against human PC-3 cells assessed as cell growth inhibition incubated for 72 hrs by CCK-8 assay; type: functional, cell-based; details: PC-3, 72 h
[28] = system: HeLa; experiment: Antiproliferative activity against human HeLa cells assessed as cell growth inhibition incubated for 72 hrs by CCK-8 assay; type: functional, cell-based
[29] = biological target: T2, Protein deacetylase HDAC6; experiment: Inhibition of recombinant human HDAC6 using HDAC substrate incubated for 30 mins by fluorescence based microplate reader analysis
[30] = system: HepG2; experiment: Antiproliferative activity against human HepG2 cells assessed as cell growth inhibition incubated for 72 hrs by CCK-8 assay; type: functional, cell-based; details: HepG2, 72 h
[31] = biological target: Histone deacetylase 2 (Homo sapiens, UniProt Q92769); experiment: Inhibition of recombinant human HDAC2 using HDAC substrate incubated for 30 mins by fluorescence based microplate reader analysis
Chain of Histone deacetylase 2 (Q92769 whole entry): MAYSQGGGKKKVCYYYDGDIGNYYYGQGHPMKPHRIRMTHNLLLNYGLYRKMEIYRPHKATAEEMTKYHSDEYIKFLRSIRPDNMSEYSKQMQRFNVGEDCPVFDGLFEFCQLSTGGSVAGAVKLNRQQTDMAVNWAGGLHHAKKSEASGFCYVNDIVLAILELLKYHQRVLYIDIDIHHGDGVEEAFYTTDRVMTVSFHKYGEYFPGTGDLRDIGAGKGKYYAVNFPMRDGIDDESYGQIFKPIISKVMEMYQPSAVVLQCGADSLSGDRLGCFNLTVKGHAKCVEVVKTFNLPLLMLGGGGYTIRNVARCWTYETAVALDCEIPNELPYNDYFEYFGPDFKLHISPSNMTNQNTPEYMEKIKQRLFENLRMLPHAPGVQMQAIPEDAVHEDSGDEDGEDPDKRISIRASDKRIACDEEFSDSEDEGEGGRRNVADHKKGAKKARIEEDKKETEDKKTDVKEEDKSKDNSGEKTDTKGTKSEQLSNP

[32] = biological target: T1, Histone deacetylase 1; experiment: Inhibition of recombinant human HDAC1 using HDAC substrate incubated for 30 mins by fluorescence based microplate reader analysis
[33] = system: A549; experiment: Antiproliferative activity against human A549 cells assessed as cell growth inhibition incubated for 72 hrs by CCK-8 assay; type: functional, cell-based; details: A549, 72 h
[34] = system: MCF7; experiment: Antiproliferative activity against human MCF7 cells assessed as cell growth inhibition incubated for 72 hrs by CCK-8 assay; type: functional, cell-based; details: MCF7, 72 h
[35] = system: A549; experiment: Anti-proliferative activity against human A549 cells assessed as cell growth inhibition by MTT assay; type: functional, cell-based
[36] = biological target: T1, Histone deacetylase 1; experiment: Inhibition of recombinant human HDAC1 using Boc-L-Lys (Ac)-AMC as substrate incubated for 35 mins by microplate reader analysis
[37] = biological target: T1, Histone deacetylase 1; experiment: Inhibition of His-tagged recombinant human HDAC1 (482 residues) expressed in baculovirus infected insect cells using FLUOR DE LYS-SIRT1 as substrate preincubated for 5 mins followed by substrate addition measured after 30 mins by fluorescence based assay
[38] = system: DU-145; experiment: Inhibition of colony formation in human DU-145 cells incubated for 10 days by crystal violet method; type: functional, cell-based; details: DU-145, 240 h
[39] = biological target: T2, Protein deacetylase HDAC6; experiment: Inhibition of His-tagged recombinant human HDAC6 expressed in baculovirus infected insect cells using Boc-Lys(Ac)-AMC as substrate preincubated for 5 mins followed by substrate addition measured after 30 mins by fluorescence based assay
[40] = system: PC-3; experiment: Inhibition of colony formation in human PC-3 cells incubated for 10 days by crystal violet method; type: functional, cell-based; details: PC-3, 240 h
[41] = biological target: Histone deacetylase; experiment: Inhibition of pan-HDAC (unknown origin); type: protein assay, Homo sapiens
[42] = system: DU-145; experiment: Anti-proliferative activity against human DU-145 cells assessed as cell growth inhibition measured after 72 hrs by SRB assay; type: functional, cell-based; details: DU-145, 72 h

SMILES: C=C(c1ccc(C(=O)NO)cc1)c1cc2c(cc1C)C(C)(C)CCC2(C)C
- TGI [1]: 53%
- IC50 [2]: 4.9 µM

SMILES: CC1(C)C(=O)N(c2ccc(C#N)c(C(F)(F)F)c2)C(=O)N1Cc1ccc(-c2cn(CCCCCCC(=O)NO)nn2)cc1
- IC50 [3]: 690 nM
- IC50 [4]: 1000 nM
- IC50 [5]: 1100 nM

SMILES: Nc1ccccc1NC(=O)c1ccc(CCCC(=O)Nc2ccc(C3CC3N)cc2)cc1 (stereo not drawn)
- IC50 [6]: 200 nM
- IC50 [7]: 140 nM
- IC50 [8]: 100 nM
- Activity [9]: <=61%

SMILES: COCCOc1cc2ncnc(Nc3ccc(/C=C/C(=O)NO)cc3)c2cc1OCCOC
- IC50 [10]: 2770 nM

SMILES: CC(C)=CCC/C(C)=C/CC/C(C)=C/CSc1ccccc1C(=O)NCCCCC(=O)NO
- IC50 [11]: 58 nM
- IC50 [12]: 4.93 µM

SMILES: O=C(CCCCCCN1CC(c2ccc3ncnc(Nc4ccc(Br)cc4F)c3c2)N=N1)NO (stereo not drawn)
- IC50 [13]: 4.3 nM
- IC50 [14]: 710 nM
- IC50 [15]: 10.9 µM
- IC50 [16]: 7.85 µM
- IC50 [17]: 5.13 µM
- IC50 [18]: 1.1 nM
- IC50 [19]: 260 nM
- IC50 [20]: 10.3 nM

SMILES: C=C1/C(=C\C=C2/CCC[C@@]3(C)[C@@H]2CC[C@H]3[C@@H](C)/C=C(C)/C=C/C(=O)NO)C[C@H](O)C[C@@H]1O
- IC50 [21]: 87 nM

SMILES: O=C(CCn1cc(CCn2nc3c(Br)c(Br)c(Br)c(Br)c3n2)nn1)NO
- IC50 [22]: 2200 nM
- IC50 [23]: 4.26 µM
- IC50 [24]: 2870 nM

SMILES: CCC(CC)(c1ccc(OCC(=O)NO)c(C)c1)c1ccc(OCC(O)C(C)(C)C)c(C)c1 (stereo not drawn)
- IC50 [25]: 14.3 µM
- IC50 [26]: 580 µM

SMILES: C[C@H]1COc2c(N3CCN(C)CC3)c(F)cc3c(=O)c(C(=O)NCC4CN(CC(=O)NO)N=N4)cn1c23 (stereo partly drawn)
- IC50 [27]: 4.9 µM
- IC50 [28]: 1100 nM
- IC50 [29]: 21 nM
- IC50 [30]: 2300 nM
- IC50 [31]: 41 nM
- IC50 [32]: 29 nM
- IC50 [33]: 2100 nM
- IC50 [34]: 300 nM

SMILES: O=C(CCCCCOc1ccc(-c2nc3ccccc3c3cc(-c4ccccc4)nn23)cc1)NO
- IC50 [35]: 720 nM

SMILES: O=C(CCCCc1cn(-c2ccc(C(=O)c3c(-c4ccc(O)cc4)sc4cc(O)ccc34)cc2)nn1)NO
- IC50 [13]: 1300 nM
- IC50 [36]: 1820 nM

SMILES: O=C(CCCCCNC(=O)c1cccc2cc3ccccc3nc12)NO
- IC50 [37]: 16.6 nM
- IC50 [38]: 160 nM
- IC50 [39]: 2.2 nM
- IC50 [40]: 310 nM

SMILES: CC[C@@]1(O)C(=O)OCc2c1cc1n(c2=O)Cc2cc3ccccc3nc2-1 [CAMPTOTHECIN]
- IC50 [41]: 0.05 µM
- IC50 [42]: 70 nM
